{"source": "ChEMBL document CHEMBL3124857", "about": "“Encoded library technology as a source of hits for the discovery and lead optimization of a potent and selective class of bactericidal direct inhibitors of Mycobacterium tuberculosis InhA” (J Med Chem, 2014)", "tested_on": "Mycobacterium tuberculosis", "test": "Selectivity for wild type Mycobacterium tuberculosis H37Rv ATCC 25618 over hygromycin-resistance Mycobacterium tuberculosis H37Rv ATCC 25618 overexpressing InhA", "format": "functional", "data": [{"compound": "CCNC(=O)[C@@H]1C[C@@H](NC(=O)c2cc(CC)nn2C)CN1C(=O)c1coc2ccccc12", "values": [{"measurement": "Selectivity ratio", "result": 16}]}]}
